Columns and labels:
ATG4B = target: T1, ATG4B (Homo sapiens, UniProt Q9Y4P1); experiment: FRET-based assay for ATG4B activity
T1 sequence (Q9Y4P1 1-393): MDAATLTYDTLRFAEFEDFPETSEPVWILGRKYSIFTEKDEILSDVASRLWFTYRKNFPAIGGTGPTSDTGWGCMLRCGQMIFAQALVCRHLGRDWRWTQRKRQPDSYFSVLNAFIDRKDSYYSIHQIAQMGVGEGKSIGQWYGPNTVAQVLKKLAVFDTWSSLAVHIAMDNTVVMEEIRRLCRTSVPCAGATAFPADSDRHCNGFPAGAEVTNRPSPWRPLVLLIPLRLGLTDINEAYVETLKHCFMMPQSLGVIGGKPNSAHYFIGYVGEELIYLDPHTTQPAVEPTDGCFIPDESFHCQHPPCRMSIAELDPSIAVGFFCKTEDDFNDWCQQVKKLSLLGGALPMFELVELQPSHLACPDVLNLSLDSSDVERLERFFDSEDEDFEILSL
Method: A FRET-based assay for detecting ATG4B activity was carried out as described [45].

HeLa cells = experiment: CCK-8 cell viability assay, HeLa; format: cell-based; conditions: Homo sapiens, HeLa; CCK-8 assay, 48 h
Method: (§1) Cells were seeded and incubated overnight in 96-well plates at a density of 5 × 10^3 cells/well. […] A total of 10 µL CCK-8 were added to each well for additional 1 h and cell viability was measured by CCK-8 assay. Absorbance was measured at 450 nm. The IC50 values were calculated by GraphPad Prism 7 (GraphPad Software Inc., San Diego, CA, USA).

HCT116 cells = experiment: CCK-8 cell viability assay, HCT116; format: cell-based, Human; conditions: Homo sapiens, HCT-116; CCK-8 assay, 48 h
Method: as §1

HL60 cells = experiment: CCK-8 cell viability assay, HL60; format: cell-based; conditions: Homo sapiens, HL-60; CCK-8 assay
Method: as §1

[1] = system: proteolytic activity of lysosomes in HeLa cells; experiment: DQ-BSA Red assay; format: cell-based; conditions: 6 h, 163N 5 or 10 µM, Baf 0.5 µM, E64D 25 µM plus pepstatin A 50 µM
Method: Figure 5 163N causes lysosome dysfunction. […] . (C) HeLa cells were treated with or without 163N (10 µM) for 6 h, followed by immunostaining using cathepsin B and LAMP1 antibody. The colocalization of cathepsin B and LAMP1 was measured.
DQ-BSA Red assay: cells were incubated with 10 µg/mL DQ-BSA Red in EBSS medium at 37° for 1.5 h, and then new medium with or without the indicated compounds were added for another 4 or 6 h, and then fluorescence microscopy was used for detecting the intensity of red fluorescent.
Supplementary Materials: New Anti-Cancer Strategy
to Suppress Colorectal Cancer Growth Through
Inhibition of ATG4B and Lysosome Function
Figure S1. Compounds with a 6-methylpyrimidine-2,4-diamine structure could cause lysosome
inhibition. (A) The structure of the representative lysosome inhibitors. (B) GFP-LC3B HeLa cells were
treated with Baf (0.5 µM) or 5 µM of different lysosome inhibitors for 2 h, then LysoTracker Red (LTR,
25 ng/mL) was used and the relative LTR fluorescent intensity was measured. (C) HeLa cells were
firstly treated with 10 µg/mL DQ-BSA for 1.5 h, and then treated with Rap (1 µM), Baf (0.5 µM), E64D
(25 µM) plus pepstatin A (50 µM), or 5 µM of different lysosome inhibitors for 4 h.
Cancers 2020, 12, x; www.mdpi.com/journal/ cancers […]

[2] = system: lysosome acidity in HeLa cells; experiment: LysoTracker Red (LTR) assay, HeLa; format: cell-based; conditions: 6 h, 163N 5 or 10 µM, Rap 1 µM, E64D 25 µM plus pepstatin A 50 µM
Method: Figure 5 163N causes lysosome dysfunction. […] (C) HeLa cells were treated with or without 163N (10 µM) for 6 h, followed by immunostaining using cathepsin B and LAMP1 antibody. The colocalization of cathepsin B and LAMP1 was measured.
LTR assay: cells were incubated with LTR (25 nM) in HBSS medium at 37° for 30 min, and then fluorescence microscopy was used for detecting fluorescence intensity.

Compound | IC50 (ATG4B) [µM] | IC50 (HeLa cells) [µM] | IC50 (HCT116 cells) [µM] | IC50 (HL60 cells) [µM] | dequenching of DQ-BSA (proteolytic activity of lysosome) [1] | LTR red fluorescence / acidic vesicles [2]
CCOC(=O)c1c(-c2ccccc2)oc2ccc(O)cc12 [XOS00163] | 6.2 | 32 | 23 | 31.7 |  | 
Nc1cc(O)nc(/C=C/c2ccco2)c1 [XGS00048] | 13.8 | > 100 | > 100 | > 100 |  | 
Cc1ccc(/C=C/c2cc(O)cc(=O)[nH]2)o1 [XGS00031] | 13 | > 100 | > 100 | > 100 |  | 
COc1cccc(-c2cc3nc(-c4cccnc4)c(C#N)c(N)n3n2)c1 [XOS00154] | 40.7 | > 100 | > 100 | > 100 |  | 
CO/C1=C\C(C)=C\[C@@H](C)[C@@H](O)[C@@H](C)C/C(C)=C/C=C/[C@H](OC)[C@@H]([C@@H](C)[C@@H](O)[C@H](C)[C@@]2(O)C[C@@H](O)[C@H](C)[C@@H](C(C)C)O2)OC1=O [Baf, Bafilomycin A1, reference compound] |  |  |  |  | nearly no dequenching of DQ-BSA | 
CCN1C(=O)/C(=C\c2cn(CC(=O)O)c3ccccc23)C(=O)N(c2ccc(Cl)cc2)C1=S [XGS00119] | 7.37 | > 100 | > 100 | > 100 |  | 
COc1cccc(/C=C/c2cc(N)cc(O)n2)c1 [XGS00043] | 36.3 | > 100 | > 100 | > 100 |  | 
COc1ccccc1/C=C/c1cc(O)cc(=O)[nH]1 [XGS00025] | 29.2 | > 100 | > 100 | > 100 |  | 
N/C(=N\[N+](=O)[O-])N/N=C/c1ccc(-c2ccc(-n3cnnn3)cc2)o1 [XOS00117] | 6.65 | > 100 | > 100 | > 100 |  | 
COc1cccc(-c2cc3c([N+](=O)[O-])cc([N+](=O)[O-])cc3[nH]2)c1OC [XOS00176] | 23.8 | > 100 | > 100 | > 100 |  | 
CC(=O)Nc1ccc(/N=C/c2c(C)c(C#N)c3[nH]c4cc(C)ccc4n3c2=O)cc1 [XOS00125] | 40.6 | > 100 | > 100 | > 100 |  | 
COc1c2c(cc3oc(=O)c4c5cc(O)c(O)cc5oc4c13)OCC2 [XOS00207] | 2.31 | 87.1 | 17.6 | 60.7 |  | 
CCOC(=O)c1cnc2c(/N=N/c3ccc(OCC)cc3)c(N)nn2c1N [XOS00149] | 44 | > 100 | > 100 | > 100 |  | 
O=C(Nc1ccc(-c2cc3ccccc3o2)cc1)c1ccco1 [XOS00201] | 8.98 | 25.6 | 19.6 | > 100 |  | 
CO[C@H]1C[C@@H]2CC[C@@H](C)[C@@](O)(O2)C(=O)C(=O)N2CCCC[C@H]2C(=O)O[C@H]([C@H](C)C[C@@H]2CC[C@@H](O)[C@H](OC)C2)CC(=O)[C@H](C)/C=C(\C)[C@@H](O)[C@@H](OC)C(=O)[C@H](C)C[C@H](C)/C=C/C=C/C=C/1C [Rap, rapamycin, reference compound] |  |  |  |  |  | stable
Nc1cc(O)nc(/C=C/c2ccc(Cl)cc2)c1 [XGS00046] | 39.1 | > 100 | > 100 | > 100 |  | 
